From ChEMBL document CHEMBL1201862, “PubChem BioAssay data set” (2004)
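How tested: cells in 96-well plates exposed to compound for 48 hours at five concentrations. The concentration for 50% growth inhibition is given as GI50.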 Active and inactive are the calls of the source. Rule as the data show it: active = GI50 up to about 1.1 µM and inactive = higher.

Experiments:
Assay in all cases: DTP human tumour cell line panel, 48 h
A498 = tested on: A498
NCI/ADR-RES = tested on: NCI/ADR-RES
HCC 2998 = tested on: HCC 2998
OVCAR-3 = tested on: OVCAR-3
IGROV-1 = tested on: IGROV-1
A549 = tested on: A549
ACHN = tested on: ACHN
CCRF-CEM = tested on: CCRF-CEM
UACC-257 = tested on: UACC-257
DU-145 = tested on: DU-145
786-0 = tested on: 786-0
K562 = tested on: K562
T47D = tested on: T47D
NCI-H226 = tested on: NCI-H226
U-251 = tested on: U-251
SW-620 = tested on: SW-620
MDA-MB-435 = tested on: MDA-MB-435
OVCAR-5 = tested on: OVCAR-5
M14 = tested on: M14
Malme-3M = tested on: Malme-3M

Measured: GI50

C/C=C(\C)C(=O)OC1C2C(C)C(=O)OC2C(O)C(C)C2C=CC(=O)C21C (stereo not given)
inactive: A498 16.1 µM | NCI/ADR-RES 14.6 µM | HCC 2998 13.3 µM | OVCAR-3 10.8 µM | IGROV-1 8.69 µM | A549 17.8 µM | ACHN 12.3 µM | CCRF-CEM 3.06 µM | UACC-257 12.7 µM | DU-145 10.9 µM | 786-0 12.1 µM | K562 2.96 µM | T47D 16.7 µM | NCI-H226 16.9 µM | U-251 11.5 µM | SW-620 14 µM | MDA-MB-435 12.9 µM | OVCAR-5 19.5 µM | M14 14.9 µM | Malme-3M 12.6 µM

CC(=O)NC1C(O)C(O)C(CO)OC1n1nc(SCc2ccccc2)c(=O)[nH]c1=O (stereo not given)
inactive: A498 > 100 µM | NCI/ADR-RES > 100 µM | HCC 2998 > 100 µM | OVCAR-3 > 100 µM | IGROV-1 > 100 µM | A549 > 100 µM | ACHN > 100 µM | CCRF-CEM > 100 µM | UACC-257 > 100 µM | DU-145 > 100 µM | 786-0 > 100 µM | K562 > 100 µM | T47D > 100 µM | NCI-H226 > 100 µM | U-251 > 100 µM | SW-620 > 100 µM | MDA-MB-435 > 100 µM | OVCAR-5 > 100 µM | M14 > 100 µM | Malme-3M > 100 µM
